In ChEMBL document CHEMBL3045207, “1-Phenyl-3-toluyl-4-[ortho-1'-(N-ethyl-2'-methylpropylamine)]phenylpyrazole, synthesis and evaluation of the in vitro antifungal activity against Botrytis cinerea and Fusarium oxysporum” (Farmaco, 2004):
≈ marks a conversion by molar mass, not a printed value. Calls of active or inactive are those of the source. No cut-off for these calls is given here.

Legend:
Fusarium oxysporum [1] = test: Antifungal activity against Fusarium oxysporum assessed as growth inhibition at 1 mg/ml after 72 hr by paper disk diffusion method; type: functional; conditions: read-out: DIZ
Botrytis cinerea [2] = test: Antifungal activity against Botryotinia fuckeliana after 72 hr by 96-well microbioassay; type: functional
Botrytis cinerea [3] = test: Antifungal activity against Botryotinia fuckeliana assessed as growth inhibition at 1 mg/ml after 72 hr by paper disk diffusion method; type: functional; conditions: read-out: DIZ
Fusarium oxysporum [4] = test: Antifungal activity against Fusarium oxysporum after 72 hr by 96-well microbioassay; type: functional
Fusarium oxysporum [5] = test: Inhibition of conidial germination of Fusarium oxysporum after 8 days by microscopy; type: functional, organism-based; conditions: 192 h
Botrytis cinerea [6] = test: Inhibition of conidial germination of Botryotinia fuckeliana after 8 days by microscopy; type: functional, organism-based; conditions: 192 h
Fusarium oxysporum [7] = test: Inhibition of conidial germination of Fusarium oxysporum at 10 ug/ml after 48 hr by microscopy; type: functional
Fusarium oxysporum [8] = test: Inhibition of conidial germination of Fusarium oxysporum at 100 ug/ml after 8 days by microscopy; type: functional, organism-based
Botrytis cinerea [9] = test: Inhibition of mycelial growth of Botryotinia fuckeliana after […]; type: functional, organism-based
Botrytis cinerea [10] = test: Inhibition of conidial germination of Botryotinia fuckeliana at 50 ug/ml after 8 days by microscopy; type: functional, organism-based
Botrytis cinerea [11] = test: Inhibition of conidial germination of Botryotinia fuckeliana at 10 ug/ml after 48 hr by microscopy; type: functional
Fusarium oxysporum [12] = test: Inhibition of mycelial growth of Fusarium oxysporum after […]; type: functional, organism-based

SMILES	zone of inhibition at 1000 µg/mL (Fusarium oxysporum [1])	MIC (Botrytis cinerea [2])	zone of inhibition at 1000 µg/mL (Botrytis cinerea [3])	MIC (Fusarium oxysporum [4])	IC50 (Fusarium oxysporum [5])	IC50 (Botrytis cinerea [6])	inhibition at 10 µg/mL (Fusarium oxysporum [7])	inhibition (Fusarium oxysporum [8])	IC50 (Botrytis cinerea [9])	inhibition (Botrytis cinerea [10])	inhibition at 10 µg/mL (Botrytis cinerea [11])	IC50 (Fusarium oxysporum [12])
C[C@@H]1[C@H](O)[C@@H](C)/C=C/C=C/C=C/C=C/C=C/C=C/C=C/[C@H](O[C@@H]2O[C@H](C)[C@@H](O)[C@H](N)[C@@H]2O)C[C@@H]2O[C@](O)(C[C@@H](O)C[C@@H](O)[C@H](O)CC[C@@H](O)C[C@@H](O)CC(=O)O[C@H]1C)C[C@H](O)[C@H]2C(=O)O [AMPHOTERICIN B]	26 mm	12 µg/mL (≈ 13 µM)	30 mm	15 µg/mL (≈ 16.2 µM)								
CCNC(c1ccccc1-c1cn(-c2ccccc2)nc1-c1ccc(C)cc1)C(C)C (stereo unspecified)	23.6 mm	25 µg/mL (≈ 61 µM)	26 mm	36 µg/mL (≈ 87.9 µM)	40.8 µg/mL (≈ 99.6 µM)	7.3 µg/mL (≈ 17.8 µM)	20%	Active	6.8 µg/mL (≈ 16.6 µM)	Active	85%	17.8 µg/mL (≈ 43.4 µM)
